Measurements from ChEMBL document CHEMBL1147963, “Design, synthesis, and antitumor activity of bile acid-polyamine-nucleoside conjugates” (Bioorg Med Chem Lett, 2007).

What was measured:
Format in all cases: functional, cell-based
HeLa [1] = test: Cytotoxicity against human HeLa cells at 100 uM after 48 hrs by MTT assay
786-0 = test: Cytotoxicity against human 7860 cells after 48 hrs by MTT assay
HeLa [2] = test: Cytotoxicity against human HeLa cells at 125 uM after 48 hrs by MTT assay

| SMILES | IC50 (HeLa [1]) [µM] | IC50 (786-0; Homo sapiens, 786-0, 48 h) [µM] | IC50 (786-0; 786-0) [µM] | IC50 (HeLa [2]) [µM] |
| --- | --- | --- | --- | --- |
| CCCCCCCCCCCCCCCCCCO[PH](=O)OC[C@H]1O[C@@H](n2cc(C)c(=O)[nH]c2=O)C[C@@H]1N=[N+]=[N-] (stereo not given in full) | > 100 | 86 | – | – |
| Cc1cn([C@H]2C[C@H](N=[N+]=[N-])[C@@H](COP(=O)(NCCNCCNC(=O)CCC(C)[C@H]3CC[C@H]4[C@@H]5[C@H](O)C[C@@H]6C[C@H](O)CC[C@]6(C)[C@H]5C[C@H](O)[C@]34C)OC[C@H]3O[C@@H](n4cc(C)c(=O)[nH]c4=O)C[C@@H]3N=[N+]=[N-])O2)c(=O)[nH]c1=O (stereo not given in full) | > 100 | > 100 | – | – |
| CCCCCCCCCCCCCCCCCCOP(=O)(NCCNCCNC(=O)CCC(C)[C@H]1CC[C@H]2[C@@H]3CC[C@@H]4C[C@H](O)CC[C@]4(C)[C@H]3C[C@H](O)[C@]12C)OC[C@H]1O[C@@H](n2cc(C)c(=O)[nH]c2=O)C[C@@H]1N=[N+]=[N-] (stereo not given in full) | > 100 | 58 | – | – |
| Cc1cn([C@H]2C[C@H](N=[N+]=[N-])[C@@H](COP(=O)(NCCNCCNC(=O)CCC(C)[C@H]3CC[C@H]4[C@@H]5C(=O)C[C@@H]6CC(=O)CC[C@]6(C)[C@H]5CC(=O)[C@]34C)OC[C@H]3O[C@@H](n4cc(C)c(=O)[nH]c4=O)C[C@@H]3N=[N+]=[N-])O2)c(=O)[nH]c1=O (stereo not given in full) | > 100 | > 100 | – | – |
| Cc1cn([C@H]2C[C@H](N=[N+]=[N-])[C@@H](COP(=O)(NCCCNCCCNC(=O)CCC(C)[C@H]3CC[C@H]4[C@@H]5CC[C@@H]6C[C@H](O)CC[C@]6(C)[C@H]5C[C@H](O)[C@]34C)OC[C@H]3O[C@@H](n4cc(C)c(=O)[nH]c4=O)C[C@@H]3N=[N+]=[N-])O2)c(=O)[nH]c1=O (stereo not given in full) | > 100 | > 100 | – | – |
| CCCCCCCCCCCCCCCCCCOP(=O)(NCCCNCCCNC(=O)CCC(C)[C@H]1CC[C@H]2[C@@H]3[C@H](O)C[C@@H]4C[C@H](O)CC[C@]4(C)[C@H]3C[C@H](O)[C@]12C)OC[C@H]1O[C@@H](n2cc(C)c(=O)[nH]c2=O)C[C@@H]1N=[N+]=[N-] (stereo not given in full) | 94 | 7.2 | – | – |
| CCCCCCCCCCCCCCCCCCOP(=O)(NCCCNCCCNC(=O)CCC(C)[C@H]1CC[C@H]2[C@@H]3C(=O)C[C@@H]4CC(=O)CC[C@]4(C)[C@H]3CC(=O)[C@]12C)OC[C@H]1O[C@@H](n2cc(C)c(=O)[nH]c2=O)C[C@@H]1N=[N+]=[N-] (stereo not given in full) | 91 | 7.1 | – | – |
| CCCCCCCCCCCCCCCCCCOP(=O)(NCCNCCNC(=O)CCC(C)[C@H]1CC[C@H]2[C@@H]3C(=O)C[C@@H]4CC(=O)CC[C@]4(C)[C@H]3CC(=O)[C@]12C)OC[C@H]1O[C@@H](n2cc(C)c(=O)[nH]c2=O)C[C@@H]1N=[N+]=[N-] (stereo not given in full) | > 100 | 42 | – | – |
| Cc1cn([C@H]2C[C@H](N=[N+]=[N-])[C@@H](COP(=O)(NCCCNCCCNC(=O)CCC(C)[C@H]3CC[C@H]4[C@@H]5C(=O)C[C@@H]6CC(=O)CC[C@]6(C)[C@H]5CC(=O)[C@]34C)OC[C@H]3O[C@@H](n4cc(C)c(=O)[nH]c4=O)C[C@@H]3N=[N+]=[N-])O2)c(=O)[nH]c1=O (stereo not given in full) | > 100 | > 100 | – | – |
| Cc1cn([C@H]2C[C@H](N=[N+]=[N-])[C@@H](COP(=O)(NCCNCCNC(=O)CCC(C)[C@H]3CC[C@H]4[C@@H]5CC[C@@H]6C[C@H](O)CC[C@]6(C)[C@H]5C[C@H](O)[C@]34C)OC[C@H]3O[C@@H](n4cc(C)c(=O)[nH]c4=O)C[C@@H]3N=[N+]=[N-])O2)c(=O)[nH]c1=O (stereo not given in full) | > 100 | > 100 | – | – |
| CCCCCCCCCCCCCCCCCCOP(=O)(NCCCNCCCNC(=O)CCC(C)[C@H]1CC[C@H]2[C@@H]3CC[C@@H]4C[C@H](O)CC[C@]4(C)[C@H]3C[C@H](O)[C@]12C)OC[C@H]1O[C@@H](n2cc(C)c(=O)[nH]c2=O)C[C@@H]1N=[N+]=[N-] (stereo not given in full) | 89 | 6.8 | – | – |
| CCCCCCCCCCCCCCCCCCOP(=O)(NCCNCCNC(=O)CCC(C)[C@H]1CC[C@H]2[C@@H]3[C@H](O)C[C@@H]4C[C@H](O)CC[C@]4(C)[C@H]3C[C@H](O)[C@]12C)OC[C@H]1O[C@@H](n2cc(C)c(=O)[nH]c2=O)C[C@@H]1N=[N+]=[N-] (stereo in doubt; 2a) | – | – | 59 | – |
| Cc1cn([C@H]2C[C@H](N=[N+]=[N-])[C@@H](CO)O2)c(=O)[nH]c1=O [ZIDOVUDINE] | > 100 | – | – | > 100 |
